{"source": "patent EP4810052A2", "about": "“HCRHR2 SELECTIVE POLYPEPTIDES” (Gubra A/S, priority 2023, dated 2026)", "key": {"[1]": {"experiment": "Body mass and body fat content in mouse model of diet-induced obesity (DIO)", "type": "in vivo", "conditions": "DIO mice; for relative body weight: 28 days, compared to vehicle; for Blood HbA1c / M. Gastrocnemius / M. Soleus / Body weight at termination / Fat mass change from baseline / Lean mass change from baseline / Relative body weight change at termination: Table 17 study; for Body weight at termination / Fat mass change from baseline / Lean mass change from baseline / Relative body weight change at termination: ± SEM", "summary_of_the_method": "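Male C57BL/6JRj mice on 60% kcal fat diet for 22-23 weeks, dosed subcutaneously once daily for 30-32 days at 10–100 nmol/kg versus vehicle. Body weight recorded daily to day 28, body composition by EchoMRI on day 26; Dunnett's test versus vehicle.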"}, "[2]": {"experiment": "Thioflavin T fibril formation assay of purified peptides", "type": "physicochemical", "design": "key: Amyloid fibril formation detected by an increase in ThT fluorescence was denoted with \"Yes\"; samples without increasing ThT fluorescence hence not forming amyloid fibrils were denoted \"No\"", "summary_of_the_method": "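Compounds at 200 µM in 50 mM phosphate buffer at the stated pH values, or at 200 µM in semaglutide drug product adjusted to pH 7.4, with 4 µM ThT final. Fibrillation followed as ThT fluorescence (ex 450/em 480 nm) over 96 h at 40°C, with 5 min shaking at 700 rpm alternating with 5 min rest; triplicates.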"}, "[3]": {"experiment": "Chemical stability of purified peptides (RP-UHPLC main peak purity loss)", "type": "physicochemical", "conditions": "for Purity loss (RP-UPLC analysis) T14-T0 (%): 14 days; for Purity loss (RP-UPLC analysis) T28-T0 (%): 28 days", "summary_of_the_method": "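Peptides at about 1.0 mg/ml in 50 mM phosphate buffer pH 7.5, or pH-adjusted for the pH series, were incubated at 40 °C for 14 and 28 days. Main-peak purity was taken as main-peak area over total area by RP-UHPLC (UV 215 nm, C8, 50 °C). Purity loss was calculated versus T0.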"}, "PK in mice": {"experiment": "PK in mice", "type": "in vivo", "design": "T½ / MRT: unit: h", "conditions": "for half-life: read-out: T½ (converted)", "summary_of_the_method": "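Male NMRI/RjHan lean mice, about 8 weeks old after acclimatization, got one peptide IV and another SC at 15 or 50 nmol/kg. Sparse plasma sampling (3 mice per timepoint) ran from 0.17 to 96 h post-dose. LC-MS/MS quantified plasma levels, with parameters from non-compartmental analysis.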"}, "[4]": {"conditions": "male, NMRI/RjHan, in vivo, iv, Mouse, 15 nmol/kg i.v."}, "[5]": {"conditions": "male, NMRI/RjHan, in vivo, sc, Mouse, 15 nmol/kg s.c."}}, "note": "Where two headings read alike, the source gives them in different places. Marks after values point to notes of the source that are not given here. Starred links: 1 amine or outer side, 2 acyl side, 3 side chain; linkers in the order of their positions; H or OH if unused. Non-standard residues stand in square brackets, D forms with d. Residues, ends and D or L forms follow the SMILES beside them. Groups on a side chain read outwards from the residue. *: point of attachment. C20 diacid = O=C(O)CCCCCCCCCCCCCCCCCCC(=O)*; γGlu = O=C(O)[C@H](CCC(=O)[*:2])N[*:1]; NMeI = CC[C@H](C)[C@H](NC)C(=O)O; Nle = CCCC[C@H](N)C(=O)O; AEEA = NCCOCCOCC(=O)O; Aib = CC(C)(N)C(=O)O", "data": [{"smiles": "CCCC[C@H](NC(=O)[C@@H](NC(=O)[C@H](CCC(=O)O)NC(=O)C(C)(C)NC(=O)[C@H](CC(N)=O)NC(=O)[C@@H](NC(=O)[C@H](CCCCNC(=O)COCCOCCNC(=O)COCCOCCNC(=O)CC[C@H](NC(=O)CC[C@H](NC(=O)CCCCCCCCCCCCCCCCCCC(=O)O)C(=O)O)C(=O)O)NC(=O)[C@H](C)NC(=O)[C@H](CCC(N)=O)NC(=O)[C@H](CCC(=O)O)NC(=O)[C@H](CCCNC(=N)N)NC(=O)[C@H](C)NC(=O)[C@H](C)NC(=O)[C@H](CCCNC(=N)N)NC(=O)[C@H](C)NC(=O)[C@H](CCCNC(=N)N)NC(=O)[C@H](C)NC(=O)[C@H](CCC(N)=O)NC(=O)[C@H](CO)NC(=O)[C@H](CC(C)C)NC(=O)[C@H](CC(C)C)NC(=O)[C@@H](NC(=O)[C@H](CCC(N)=O)NC(=O)[C@H](CC(C)C)NC(=O)[C@H](CC(C)C)NC(=O)CNC(=O)[C@@H](NC(=O)[C@@H]1CCCN1C(=O)[C@@H](NC(=O)[C@H](CC(=O)O)NC(=O)[C@H](CC(C)C)NC(=O)[C@H](CO)NC(=O)[C@H](CC(C)C)NC(=O)[C@@H](NC(=O)[C@@H](NC)[C@@H](C)CC)C(C)C)C(C)C)[C@@H](C)CC)[C@@H](C)CC)[C@@H](C)O)[C@@H](C)CC)C(=O)N[C@@H](C)C(=O)N[C@@H](CCC(=O)O)C(=O)N[C@H](C(N)=O)C(C)C", "note": "[SEQ ID NO: 215] (H-[NMeI]VLSLDVPIGLLQILLSQARARAAREQAK([AEEA-AEEA-γGlu-γGlu-C20 diacid])TN[Aib]EI[Nle]AEV-NH2)", "values": [{"measurement": "body weight loss compared to SEQ ID NO: 16", "setting": "[1]; 10 nmol/kg, Fig. 5", "value": "relative higher body weight loss"}, {"measurement": "relative body weight", "setting": "[1]", "value": "prolonged dose-dependent reduction"}, {"measurement": "relative body weight", "setting": "[1]; listed as 215", "value": "reduce body weight"}, {"measurement": "Blood HbA1c", "setting": "[1]; 10 nmol/kg", "value": "4.3 ± 0.1", "unit": "%"}, {"measurement": "M. Gastrocnemius", "setting": "[1]; 10 nmol/kg", "value": "0.19 ± 0.002* ** g"}, {"measurement": "M. Soleus", "setting": "[1]; 10 nmol/kg", "value": "0.012 ± 0.0005", "unit": "g"}, {"measurement": "Body weight at termination", "setting": "[1]; 10 nmol/kg", "value": "40.5 ± 1.2", "unit": "g"}, {"measurement": "Fat mass change from baseline", "setting": "[1]; 10 nmol/kg", "value": "-8.7 ± 0.5", "unit": "g"}, {"measurement": "Lean mass change from baseline", "setting": "[1]; 10 nmol/kg", "value": "0.1 ± 0.5", "unit": "g"}, {"measurement": "Relative body weight change at termination", "setting": "[1]; 10 nmol/kg", "value": "85.5 ± 1.3", "unit": "%"}, {"measurement": "Blood HbA1c", "setting": "[1]; 30 nmol/kg", "value": "4.4 ± 0.03", "unit": "%"}, {"measurement": "M. Gastrocnemius", "setting": "[1]; 30 nmol/kg", "value": "0.18 ± 0.003", "unit": "g"}, {"measurement": "M. Soleus", "setting": "[1]; 30 nmol/kg", "value": "0.012 ± 0.0005", "unit": "g"}, {"measurement": "Body weight at termination", "setting": "[1]; 30 nmol/kg", "value": "38.9 ± 1.1", "unit": "g"}, {"measurement": "Fat mass change from baseline", "setting": "[1]; 30 nmol/kg", "value": "-9.9 ± 0.7", "unit": "g"}, {"measurement": "Lean mass change from baseline", "setting": "[1]; 30 nmol/kg", "value": "-0.5 ± 0.3", "unit": "g"}, {"measurement": "Relative body weight change at termination", "setting": "[1]; 30 nmol/kg", "value": "81.8 ± 1.9", "unit": "%"}, {"measurement": "Amyloid fibril formation + semaglutide (Ozempic®), pH 7.4", "setting": "[2]; 200 µM compound dissolved in semaglutide drug product, pH 7.4, listed as None = drug product alone", "value": "No"}, {"measurement": "Amyloid fibril formation pH 7.0", "setting": "[2]; 200 µM in 50 mM phosphate buffer, pH 7.0", "value": "No"}, {"measurement": "Amyloid fibril formation pH 7.5", "setting": "[2]; 200 µM in 50 mM phosphate buffer, pH 7.5", "value": "No"}, {"measurement": "Amyloid fibril formation pH 8.0", "setting": "[2]; 200 µM in 50 mM phosphate buffer, pH 8.0", "value": "No"}, {"measurement": "Fibrillation (pH 7.5)", "setting": "[2]; pH 7.5", "value": "No"}, {"measurement": "Purity loss (RP-UPLC analysis) T14-T0 (%)", "setting": "[3]; pH 7.0, 40°C", "value": 0.2, "unit": "%"}, {"measurement": "Purity loss (RP-UPLC analysis) T28-T0 (%)", "setting": "[3]; pH 7.0, 40°C", "value": -0.3, "unit": "%"}, {"measurement": "Purity loss (RP-UPLC analysis) T14-T0 (%)", "setting": "[3]; pH 7.5, 40°C", "value": 0.1, "unit": "%"}, {"measurement": "Purity loss (RP-UPLC analysis) T28-T0 (%)", "setting": "[3]; pH 7.5, 40°C", "value": -0.1, "unit": "%"}, {"measurement": "Chemical stability at pH 7.5 after 14 days at 40°C (% degradation)", "setting": "[3]; pH 7.5, 14 days, 40°C", "value": -0.92, "unit": "%"}, {"measurement": "Chemical stability at pH 7.5 after 28 days at 40°C (% degradation)", "setting": "[3]; pH 7.5, 28 days, 40°C", "value": 0.31, "unit": "%"}, {"measurement": "Purity loss (RP-UPLC analysis) T14-T0 (%)", "setting": "[3]; pH 8.0, 40°C", "value": -0.4, "unit": "%"}, {"measurement": "Purity loss (RP-UPLC analysis) T28-T0 (%)", "setting": "[3]; pH 8.0, 40°C", "value": -0.7, "unit": "%"}, {"measurement": "MRT", "setting": "PK in mice; Mouse", "value": 17.4}, {"measurement": "T½", "setting": "PK in mice; Mouse", "value": 12.6}, {"measurement": "bioavailability", "setting": "PK in mice; male, NMRI, mouse, in vivo, sc", "value": 56, "unit": "%"}, {"measurement": "clearance", "setting": "PK in mice; [4]", "value": 4, "unit": "mL/h/kg"}, {"measurement": "half-life", "setting": "PK in mice; [4]", "value": 12.6, "unit": "h"}, {"measurement": "Cmax", "setting": "PK in mice; [5]", "value": 0.058, "unit": "µM"}, {"measurement": "Tmax", "setting": "PK in mice; [5]", "value": 6, "unit": "h"}, {"measurement": "half-life", "setting": "PK in mice; [5]", "value": 14.1, "unit": "h"}]}]}
